Measured values reported in patent US20100303727A1, “OPTICAL IMAGING AGENTS” (priority 2007, published 2010).
Read-outs that look alike come from different tables or passages of the source. Bridge positions count the residues as written; N and C are the ends. Peptide text beside a SMILES is read from it. * marks the point of attachment. X3 = CC[N+]1=C(/C=C/C=C/C=C2/N(CCCCCC(=O)*)c3ccc(S(=O)(=O)O)cc3C2(C)C)C(C)(C)c2cc(S(=O)(=O)[O-])ccc21; X1 = C[N+]1=C(/C=C/C=C/C=C2/N(CCCCCC(=O)*)c3ccccc3C2(C)C)C(C)(C)c2cc(S(=O)(=O)[O-])ccc21; X2 = NC(=O)COCC(=O)NCCOCCOCCOCCN*

What was measured:
[1] = molecular target: T1, αVβ3 receptor (Homo sapiens, UniProt P05106+P06756); experiment: Competition assay using 125I-echistatin on EA-Hy926 membranes; type: binding; conditions: for Ki: competition with 125I-Echistatin, EA-Hy926 membranes
T1 construct: endogenous in cells; host or cells: EA-Hy926 human endothelial cell line (membrane preparation)
Method: A classical competition assay using ^125I-echistatin was performed in order to check the affinity (Ki) of the RGD-Cy^D conjugates (Compounds 1 to 8) towards membranes expressing. the αVβ3 receptor. Ki was determined in receptor competition studies with membranes prepared from human endothelial cells. Membranes from the human endothelial adenocarcinoma cell line EA-Hy926 that express several integrins including αVβ3 were prepared and used as a receptor source. Competitive binding of ^125I-Echistatin, a known […] for several integrins including αVβ3, was carried out with varying concentrations of cold compounds.

[2] = system: HT-29 tumour; experiment: In vivo optical imaging of HT-29 tumour-bearing mice; conditions: mean tumour region intensity divided by mean muscle region intensity, iv injection, HT-29 tumours s.c.
Method: Female BALB c/A nude (Bom) mice were used in the study. The use of the animals was approved by the local ethics committee. As the animals were immunocompromised, they were housed in individually ventilated cages (IVC, Scanbur BK) supplied with HEPA filtered air. The animals had ad libitum access to “Rat and Mouse nr. 3 Breeding” diet (Scanbur BK) and tap water acidified by addition of HCl to a molar concentration of 1 mM (pH 3.0). In order to protect the animals during handling and all procedures before the imaging procedure, they were handled under conditions of laminar HEPA filtered air.
The animals were allowed an acclimatisation period of at least 5 days before being injected s.c. with HT-29 tumour cell suspensions at two sites (shoulder and left, lower flank) with a nominal dose of 2.5-3×10^6 cells per injection in a volume of 100 μl. The s.c. injections were performed under light gas anaesthesia. […]
Image analysis was performed with custom written MATLAB software. […] The mean signal of the pixel values inside each region was calculated. The mean signal and pixel standard deviation was calculated.
Based on the in-vitro data from example 7-10, in-vivo results from compounds 1, 2, 4 and 6 are presented. Tumour enhancement is quantified by a target to background ratio (TBR) defined as the ratio of the mean tumour region intensity divided by the mean muscle region intensity.

[3] = system: collagen; type: binding; conditions: 1 h 37° C., Ex646/Em678 nm
Method: Commercially available collagen-covered 96-well plates were used (BD Biocoat, Art. code BDAA 356649, Becton, Dickinson Biosciences, Two Oak Park, Bedford, Mass. 01730). Triplicate wells were made of each test Compound at 30 nM, 100 nM or 300 nM (1000 nM included in some cases), and the plate was incubated in the plate reader for one hour at 37° C. with shaking every other minute*. The volume in each well was 200 μl. At the end of the incubation, 150 μl supernatant was transferred to an untreated 96-well plate, and the fluorescence was read with excitation at 646 nm and emission at 678 nm wavelengths.
For calculation of the degree of binding, the fluorescence from the supernatants was compared to the fluorescence from 150 μl aliquots with the same initial concentrations. In all cases, median values from 3 wells were used.

[4] = human, plasma
[5] = type: in vitro ADME, mouse
Method: Mouse plasma (non-sterile) was purchased from Rockland, Pa., USA. This plasma is stabilized with heparin, sodium. The substance was dissolved in PBS and plasma, respectively, at concentrations 0.1/0.2 mg/mL. Both blank samples (solvent without peptide) and peptide dissolved in plasma/PBS were incubated at 37° C. for about 4 hours. After incubation the proteins were removed by ultrafiltration using non-sterile Ultrafree®-MC centrifuge tubes with filter insert from Millipore Co. (Amicon). The cut-off of the filters was 30,000 NMWL Prior to centrifugation the plasma samples were diluted 1:1 with water. The samples were analysed by HPLC using visible detection.
The substance was dissolved in PBS, concentration 0.1 mg/mL. The fluorescence intensity of the ultracentrifuged samples was measured using Fluoroskan Ascent® FL equipped with plate reader (Thermo Labsystems Oy, Finland). Excitation wavelength was at 646 nm and emission wavelength at 678 nm and measurements were performed at two different concentrations of the substance, 6.5 μg/mL and 23 μg/mL plasma.
The Ultimate 3000 micro liquid chromatograph equipped with UV-Vis detector was applied in this study. The solution has an intense bluish colour and absorbs well at 650 nm.
The chromatography was performed on an X-Terra RP18 column 2.1×150 mm, 3.5 μm particles from Waters using a gradient elution of acetonitrile (ACN) and phosphate buffer (20 mM, pH 7.1); 650 nm detection; flow rate 0.1 mL/min; injection volume: 5 μL. Gradient: initiated at 22% ACN in buffer, increasing linearly to 50% ACN over 12 min; rapid linear increase of gradient to 90% ACN for 2 min followed; then equilibration to the starting mixture. Total analysis time was 20 min, with a retention time for the main peak of ˜9 min. Degradation/impurities were reported as changes in purity of the main peak.

| Ki [1] | Collagen binding (% bound) ([3]; initial conc. 30 nM) | Collagen binding (% bound) ([3]; initial conc. 100 nM) | Collagen binding (% bound) ([3]; initial conc. 300 nM) | Collagen binding (% bound) ([3]; initial conc. 1000 nM) | Ki (in words) ([1]; summary of Example 10) | Structure (SMILES) | Target to background ratio (TBR) [2] | PPB (ranking in words) [4] | % main peak area (after 4 h incubation in mouse plasma) [5] |
| --- | --- | --- | --- | --- | --- | --- | --- | --- | --- |
| 1.9 nM |  |  |  |  |  | CC[N+]1=C(/C=C/C=C/C=C2/N(CCCCCC(=O)NCCCC[C@@H]3NC(=O)CSC[C@@H](C(=O)NCCOCCOCCOCCNC(=O)COCC(N)=O)NC(=O)[C@H](Cc4ccccc4)NC(=O)[C@@H]4CSSC[C@H](NC3=O)C(=O)N[C@@H](CCCNC(=N)N)C(=O)NCC(=O)N[C@@H](CC(=O)O)C(=O)N4)c3ccc(S(=O)(=O)O)cc3C2(C)C)C(C)(C)c2cc(S(=O)(=O)[O-])ccc21 [Compound 1, RGD-[Cy5(2)] Dye Conjugate] ({CH2CO}-K(X3)CRGDCFC-X2; disulfide 2-6; thioether N-8) |  |  |  |
|  | 87% | 81.1% | 83% |  |  | CC[N+]1=C(/C=C/C=C/C=C2/N(CCCCCC(=O)NCCCC[C@@H]3NC(=O)CSC[C@@H](C(=O)NCCOCCOCCOCCNC(=O)COCC(N)=O)NC(=O)[C@H](CCCNC(=N)N)NC(=O)[C@@H]4CSSC[C@H](NC3=O)C(=O)NCC(=O)N[C@@H](CC(=O)O)C(=O)N[C@@H](Cc3ccccc3)C(=O)N4)c3ccc(S(=O)(=O)O)cc3C2(C)C)C(C)(C)c2cc(S(=O)(=O)[O-])ccc21 [Compound 2, neg-RGD-[Cy5(2)] Dye Conjugate] ({CH2CO}-K(X3)CGDFCRC-X2; disulfide 2-6; thioether N-8) | 1.14 |  |  |
| 2.6 nM |  |  |  |  |  | C[N+]1=C(/C=C/C=C/C=C2/N(CCCCCC(=O)NCCCC[C@@H]3NC(=O)CSC[C@@H](C(=O)NCCOCCOCCOCCNC(=O)COCC(N)=O)NC(=O)[C@H](Cc4ccccc4)NC(=O)[C@@H]4CSSC[C@H](NC3=O)C(=O)N[C@@H](CCCNC(=N)N)C(=O)NCC(=O)N[C@@H](CC(=O)O)C(=O)N4)c3ccccc3C2(C)C)C(C)(C)c2cc(S(=O)(=O)[O-])ccc21 [Compound 3, RGD-Cy5(1)) Dye Conjugate] ({CH2CO}-K(X1)CRGDCFC-X2; disulfide 2-6; thioether N-8) |  | highest PPB |  |
| 1.8 nM |  |  |  |  |  | CC1(CCCCS(=O)(=O)O)C(/C=C/C=C/C=C2/N(CCCCCC(=O)NCCCC[C@@H]3NC(=O)CSC[C@@H](C(=O)NCCOCCOCCOCCNC(=O)COCC(N)=O)NC(=O)[C@H](Cc4ccccc4)NC(=O)[C@@H]4CSSC[C@H](NC3=O)C(=O)N[C@@H](CCCNC(=N)N)C(=O)NCC(=O)N[C@@H](CC(=O)O)C(=O)N4)c3ccc(S(=O)(=O)O)cc3C2(C)C)=[N+](CCCCS(=O)(=O)O)c2ccc(S(=O)(=O)O)cc21 (stereo partly drawn) [Compound 4, RGD-Cy5** Dye Conjugate] |  | lowest | 100% |
|  | 83.6% | 96.1% | 50.9% | 30.4% |  | CC1(CCCCS(=O)(=O)O)C(/C=C/C=C/C=C2\N(CCCCCC(=O)NCCCC[C@@H]3NC(=O)CSC[C@@H](C(=O)NCCOCCOCCOCCNC(=O)COCC(N)=O)NC(=O)[C@H](Cc4ccccc4)NC(=O)[C@@H]4CSSC[C@H](NC3=O)C(=O)N[C@@H](CCCNC(=N)N)C(=O)NCC(=O)N[C@@H](CC(=O)O)C(=O)N4)c3ccc(S(=O)(=O)O)cc3C2(C)CCCCS(=O)(=O)O)=[N+](Cc2ccccc2)c2ccc(S(=O)(=O)[O-])cc21 (stereo partly drawn) [Compound 5] |  |  | 46% |
| 1.6 nM |  |  |  |  |  | CC1(C)C(/C=C/C=C/C=C2/N(CCCS(=O)(=O)O)c3ccc(S(=O)(=O)O)cc3C2(C)CCCCCC(=O)NCCCC[C@@H]2NC(=O)CSC[C@@H](C(=O)NCCOCCOCCOCCNC(=O)COCC(N)=O)NC(=O)[C@H](Cc3ccccc3)NC(=O)[C@@H]3CSSC[C@H](NC2=O)C(=O)N[C@@H](CCCNC(=N)N)C(=O)NCC(=O)N[C@@H](CC(=O)O)C(=O)N3)=[N+](CCCS(=O)(=O)O)c2ccc(S(=O)(=O)O)cc21 (stereo partly drawn) [Compound 6, RGD-Alexa 647 Dye Conjugate] |  | lowest | 100% |
| 7.4 nM |  |  |  |  | slightly higher Ki value | CC1(CCCCS(=O)(=O)[O-])C(/C=C/C=C/C=C2\N(CCCCS(=O)(=O)O)c3c(F)c(F)c(F)c(F)c3C2(C)CCCCS(=O)(=O)O)=[N+](CCCCCC(=O)NCCCC[C@@H]2NC(=O)CSC[C@@H](C(=O)NCCOCCOCCOCCNC(=O)COCC(N)=O)NC(=O)[C@H](Cc3ccccc3)NC(=O)[C@@H]3CSSC[C@H](NC2=O)C(=O)N[C@@H](CCCNC(=N)N)C(=O)NCC(=O)N[C@@H](CC(=O)O)C(=O)N3)c2c(F)c(F)c(F)c(F)c21 (stereo partly drawn) [Compound 7] |  | highest PPB | 70% |
|  | 92.1% | 85.9% | 56.7% | 32.7% |  | CCN1\C(=C/C=C/C=C/C2=[N+](CCCCCC(=O)NCCOCCOCCOCCNC(=O)COCC(=O)NCCCC[C@@H]3NC(=O)CSC[C@@H](C(=O)NCCOCCOCCOCCNC(=O)COCC(N)=O)NC(=O)[C@H](Cc4ccccc4)NC(=O)[C@@H]4CSSC[C@H](NC3=O)C(=O)N[C@@H](CCCNC(=N)N)C(=O)NCC(=O)N[C@@H](CC(=O)O)C(=O)N4)c3ccc(S(=O)(=O)[O-])cc3C2(C)C)C(C)(C)c2cc(S(=O)(=O)O)ccc21 [Compound 8] |  |  | 93% |
